Reference: patent US8722849B2, “Polypeptides” (Novo Nordisk A/S, priority 2011, dated 2014)
Starred links: 1 amine or outer side, 2 acyl side, 3 side chain; linkers in the order of their positions; H or OH if unused. Positions of bridges follow the written chain, without caps; N, C: chain ends. Residues, ends and D or L forms follow the SMILES beside them. Groups on a side chain read outwards from the residue. *: point of attachment. C20 diacid = O=C(O)CCCCCCCCCCCCCCCCCCC(=O)*; C18 diacid = O=C(O)CCCCCCCCCCCCCCCCC(=O)*; γGlu = O=C(O)[C@H](CCC(=O)[*:2])N[*:1]; AEEA = NCCOCCOCC(=O)O

Assays:
Format in all cases: cell-based
[1] = target: T1, rat calcitonin (a) receptor (Rattus norvegicus, UniProt P32214); assay: Assay (II)b functional cAMP FlashPlate assay, rat calcitonin receptor; conditions: Table 11; read-out: CTa receptor rat EC50
T1 construct: expressed in transfected cells; host or cells: BHK tk'ts 13
T1 sequence (P32214 25-479 isoform P32214-2 limits assumed): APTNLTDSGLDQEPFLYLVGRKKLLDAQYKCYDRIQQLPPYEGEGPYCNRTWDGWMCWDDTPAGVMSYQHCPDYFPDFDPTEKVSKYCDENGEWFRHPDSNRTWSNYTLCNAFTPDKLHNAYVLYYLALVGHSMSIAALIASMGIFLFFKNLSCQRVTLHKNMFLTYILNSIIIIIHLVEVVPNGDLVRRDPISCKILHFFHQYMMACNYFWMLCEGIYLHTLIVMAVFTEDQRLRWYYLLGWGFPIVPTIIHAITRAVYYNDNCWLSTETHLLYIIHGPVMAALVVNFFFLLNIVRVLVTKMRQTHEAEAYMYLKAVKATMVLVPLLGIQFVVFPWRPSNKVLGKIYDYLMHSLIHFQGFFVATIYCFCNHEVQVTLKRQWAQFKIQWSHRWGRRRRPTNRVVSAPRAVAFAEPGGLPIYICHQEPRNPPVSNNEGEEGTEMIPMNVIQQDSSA
Procedure, shortened: (§1)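 BHK tk'ts 13 cells transiently transfected with rat calcitonin(a) receptor, alone or with rat RAMP3 (amylin 3(a)), were stimulated 24 hours later with sample for 30 min in buffer containing IBMX. cAMP measured by competitive radioactive FlashPlate assay, scintillation read after 3 h detection incubation.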

[2] = target: T2, rat amylin 3(a) receptor (rat calcitonin(a) receptor + rat RAMP3) (Rattus norvegicus, UniProt P32214+Q9JJ73); assay: Assay (II)b functional cAMP FlashPlate assay, rat amylin receptor; conditions: Table 11
T2 construct: expressed in transfected cells; host or cells: BHK tk'ts 13
T2 sequence (P32214 25-479 isoform P32214-2 limits assumed): T1 sequence (P32214 25-479 isoform P32214-2 limits assumed)
T2 sequence (Q9JJ73 23-147 partner): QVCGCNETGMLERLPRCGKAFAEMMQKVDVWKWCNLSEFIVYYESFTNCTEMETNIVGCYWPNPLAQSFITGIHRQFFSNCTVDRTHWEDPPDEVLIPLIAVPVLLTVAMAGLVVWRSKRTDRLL
Procedure, shortened: as §1

[3] = target: T3, human calcitonin receptor (Homo sapiens, UniProt P30988); assay: Assay (II)a functional CRE-luciferase assay, human calcitonin receptor; conditions: Table 7; human calcitonin (CTa) receptor
T3 construct: expressed in transfected cells; host or cells: BHK570
T3 sequence (P30988 25-474): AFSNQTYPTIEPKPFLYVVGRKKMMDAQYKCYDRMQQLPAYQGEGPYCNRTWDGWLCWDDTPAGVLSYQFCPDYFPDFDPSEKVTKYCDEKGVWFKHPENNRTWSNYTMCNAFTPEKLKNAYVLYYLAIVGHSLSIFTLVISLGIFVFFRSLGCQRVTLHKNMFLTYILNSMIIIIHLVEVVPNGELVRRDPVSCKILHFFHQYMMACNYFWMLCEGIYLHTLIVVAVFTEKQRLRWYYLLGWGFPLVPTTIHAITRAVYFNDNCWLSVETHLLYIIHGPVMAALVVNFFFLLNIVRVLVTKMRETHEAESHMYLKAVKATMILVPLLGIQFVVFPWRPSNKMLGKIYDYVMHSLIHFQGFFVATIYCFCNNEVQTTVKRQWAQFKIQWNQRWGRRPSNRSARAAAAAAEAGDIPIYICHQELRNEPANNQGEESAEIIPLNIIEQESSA

SMILES	EC50 [1]	EC50 [2]	EC50 [3]
CC[C@H](C)[C@H](NC(=O)[C@H](CCCCNC(=O)COCCOCCNC(=O)COCCOCCNC(=O)CC[C@H](NC(=O)CCCCCCCCCCCCCCCCC(=O)O)C(=O)O)NC(=O)CNC(=O)[C@H](Cc1ccccc1)NC(=O)[C@H](CC(N)=O)NC(=O)[C@H](CC(N)=O)NC(=O)[C@H](CO)NC(=O)[C@H](CO)NC(=O)[C@H](Cc1c[nH]cn1)NC(=O)[C@H](Cc1c[nH]cn1)NC(=O)[C@H](CC(C)C)NC(=O)[C@H](Cc1ccccc1)NC(=O)[C@H](CCC(=O)O)NC(=O)[C@H](C)NC(=O)[C@H](CC(C)C)NC(=O)[C@H](CCCNC(=N)N)NC(=O)[C@H](CCC(N)=O)NC(=O)[C@@H](NC(=O)[C@H](C)NC(=O)[C@@H]1CSSC[C@H](NC(=O)[C@@H](N)CCCCN)C(=O)N[C@@H](CC(N)=O)C(=O)N[C@@H]([C@@H](C)O)C(=O)N[C@@H](C)C(=O)N[C@@H]([C@@H](C)O)C(=O)N1)[C@@H](C)O)C(=O)N[C@@H](CC(C)C)C(=O)N1CCC[C@H]1C(=O)N1CCC[C@H]1C(=O)N[C@H](C(=O)N[C@@H](CC(N)=O)C(=O)N[C@H](C(=O)NCC(=O)N[C@@H](CO)C(=O)N[C@@H](CC(N)=O)C(=O)N[C@H](C(=O)N[C@@H](Cc1ccc(O)cc1)C(N)=O)[C@@H](C)O)C(C)C)[C@@H](C)O [Example 73, N-epsilon25-[2-(2-{2-[2-(2-{2-[(S)-4-Carboxy-4-(17-carboxyheptadecanoylamino)butyrylamino]ethoxy}ethoxy)acetylamino]ethoxy}ethoxy)acetyl]-[Glu14,His17,Lys25]-pramlintide] (H-KCNTATCATQRLAEFLHHSSNNFGK([AEEA-AEEA-γGlu-C18 diacid])ILPPTNVGSNTY-NH2; disulfide 2-7 (inferred); N-terminus and C-terminus assumed)	0.167 nM	0.052 nM	0.045 nM
CC[C@H](C)[C@H](NC(=O)[C@@H]1CCCN1C(=O)CNC(=O)[C@H](Cc1ccccc1)NC(=O)[C@H](CC(N)=O)NC(=O)[C@H](CC(N)=O)NC(=O)[C@H](CO)NC(=O)[C@H](CO)NC(=O)[C@H](Cc1c[nH]cn1)NC(=O)[C@H](Cc1c[nH]cn1)NC(=O)[C@H](CC(C)C)NC(=O)[C@H](Cc1ccccc1)NC(=O)[C@H](CCC(=O)O)NC(=O)[C@H](C)NC(=O)[C@H](CC(C)C)NC(=O)[C@H](CCCNC(=N)N)NC(=O)[C@H](CCC(N)=O)NC(=O)[C@@H](NC(=O)[C@H](C)NC(=O)[C@@H]1CSSC[C@H](NC(=O)[C@H](CCCCN)NC(=O)[C@H](Cc2c[nH]cn2)NC(=O)CC[C@H](NC(=O)CCCCCCCCCCCCCCCCCCC(=O)O)C(=O)O)C(=O)N[C@@H](CC(N)=O)C(=O)N[C@@H]([C@@H](C)O)C(=O)N[C@@H](C)C(=O)N[C@@H]([C@@H](C)O)C(=O)N1)[C@@H](C)O)C(=O)N[C@@H](CC(C)C)C(=O)N1CCC[C@H]1C(=O)N1CCC[C@H]1C(=O)N[C@H](C(=O)N[C@@H](CC(N)=O)C(=O)N[C@H](C(=O)NCC(=O)N[C@@H](CO)C(=O)N[C@@H](Cc1c[nH]cn1)C(=O)N[C@H](C(=O)N[C@@H](Cc1ccc(O)cc1)C(N)=O)[C@@H](C)O)C(C)C)[C@@H](C)O [Example 66, N-alpha-[(S)-4-Carboxy-4-(19-carboxynonadecanoylamino)butyryl]-His-[Glu14,His17,His35]-pramlintide] ({C20 diacid-γGlu}-HKCNTATCATQRLAEFLHHSSNNFGPILPPTNVGSHTY-NH2; disulfide 3-8 (inferred); C-terminus assumed)	0.656 nM	0.305 nM	0.21 nM
CC[C@H](C)[C@H](NC(=O)[C@@H]1CCCN1C(=O)CNC(=O)[C@H](Cc1ccccc1)NC(=O)[C@H](CC(N)=O)NC(=O)[C@H](CC(N)=O)NC(=O)[C@H](CO)NC(=O)[C@H](CO)NC(=O)[C@H](CCCNC(=N)N)NC(=O)[C@H](Cc1c[nH]cn1)NC(=O)[C@H](CC(C)C)NC(=O)[C@H](Cc1ccccc1)NC(=O)[C@H](CCC(=O)O)NC(=O)[C@H](C)NC(=O)[C@H](CC(C)C)NC(=O)[C@H](CCCNC(=N)N)NC(=O)[C@H](CCC(N)=O)NC(=O)[C@@H](NC(=O)[C@H](C)NC(=O)[C@@H]1CSSC[C@H](NC(=O)[C@H](Cc2c[nH]cn2)NC(=O)CC[C@H](NC(=O)CCCCCCCCCCCCCCCCCCC(=O)O)C(=O)O)C(=O)N[C@@H](CC(N)=O)C(=O)N[C@@H]([C@@H](C)O)C(=O)N[C@@H](C)C(=O)N[C@@H]([C@@H](C)O)C(=O)N1)[C@@H](C)O)C(=O)N[C@@H](CC(C)C)C(=O)N1CCC[C@H]1C(=O)N1CCC[C@H]1C(=O)N[C@H](C(=O)N[C@@H](CC(N)=O)C(=O)N[C@H](C(=O)NCC(=O)N[C@@H](CO)C(=O)N[C@@H](CC(N)=O)C(=O)N[C@H](C(=O)N[C@@H](Cc1ccc(O)cc1)C(N)=O)[C@@H](C)O)C(C)C)[C@@H](C)O [Example 1, N-alpha-[(S)-4-Carboxy-4-(19-carboxynonadecanoylamino)butyryl]-[His1,Glu14,His17,Arg18]-pramlintide] ({C20 diacid-γGlu}-HCNTATCATQRLAEFLHRSSNNFGPILPPTNVGSNTY-NH2; disulfide 2-7 (inferred))	0.379 nM	0.0645 nM	0.15 nM
CC[C@H](C)[C@H](NC(=O)[C@@H]1CCCN1C(=O)CNC(=O)[C@H](Cc1ccccc1)NC(=O)[C@H](CC(N)=O)NC(=O)[C@H](CC(N)=O)NC(=O)[C@H](CO)NC(=O)[C@H](CO)NC(=O)[C@H](Cc1c[nH]cn1)NC(=O)[C@H](Cc1c[nH]cn1)NC(=O)[C@H](CC(C)C)NC(=O)[C@H](Cc1ccccc1)NC(=O)[C@H](CCC(=O)O)NC(=O)[C@H](C)NC(=O)[C@H](CC(C)C)NC(=O)[C@H](CCCNC(=N)N)NC(=O)[C@H](CCC(N)=O)NC(=O)[C@@H](NC(=O)[C@H](C)NC(=O)[C@@H]1CSSC[C@H](NC(=O)[C@H](Cc2c[nH]cn2)NC(=O)[C@H](Cc2c[nH]cn2)NC(=O)[C@H](Cc2c[nH]cn2)NC(=O)CC[C@H](NC(=O)CCCCCCCCCCCCCCCCCCC(=O)O)C(=O)O)C(=O)N[C@@H](CC(N)=O)C(=O)N[C@@H]([C@@H](C)O)C(=O)N[C@@H](C)C(=O)N[C@@H]([C@@H](C)O)C(=O)N1)[C@@H](C)O)C(=O)N[C@@H](CC(C)C)C(=O)N1CCC[C@H]1C(=O)N1CCC[C@H]1C(=O)N[C@H](C(=O)N[C@@H](CC(N)=O)C(=O)N[C@H](C(=O)NCC(=O)N[C@@H](CO)C(=O)N[C@@H](CCCNC(=N)N)C(=O)N[C@H](C(=O)N[C@@H](Cc1ccc(O)cc1)C(N)=O)[C@@H](C)O)C(C)C)[C@@H](C)O [Example 21, N-alpha-[(S)-4-Carboxy-4-(19-carboxynonadecanoylamino)butyryl]-His-His-[His1,Glu14,His17,Arg35]-pramlintide] ({C20 diacid-γGlu}-HHHCNTATCATQRLAEFLHHSSNNFGPILPPTNVGSRTY-NH2; disulfide 4-9 (inferred))	1.34 nM	0.133 nM	0.429 nM
CC[C@H](C)[C@H](NC(=O)[C@@H]1CCCN1C(=O)CNC(=O)[C@H](Cc1ccccc1)NC(=O)[C@H](CC(N)=O)NC(=O)[C@H](CC(N)=O)NC(=O)[C@H](CO)NC(=O)[C@H](CO)NC(=O)[C@H](Cc1c[nH]cn1)NC(=O)[C@@H](NC(=O)[C@H](CC(C)C)NC(=O)[C@H](Cc1ccccc1)NC(=O)[C@H](CCC(=O)O)NC(=O)[C@H](C)NC(=O)[C@H](CC(C)C)NC(=O)[C@H](CCCNC(=N)N)NC(=O)[C@H](CCC(N)=O)NC(=O)[C@@H](NC(=O)[C@H](C)NC(=O)[C@@H]1CSSC[C@H](NC(=O)[C@H](CCCCN)NC(=O)CC[C@H](NC(=O)CCCCCCCCCCCCCCCCCCC(=O)O)C(=O)O)C(=O)N[C@@H](CC(N)=O)C(=O)N[C@@H]([C@@H](C)O)C(=O)N[C@@H](C)C(=O)N[C@@H]([C@@H](C)O)C(=O)N1)[C@@H](C)O)C(C)C)C(=O)N[C@@H](CC(C)C)C(=O)N1CCC[C@H]1C(=O)N1CCC[C@H]1C(=O)N[C@H](C(=O)N[C@@H](CC(N)=O)C(=O)N[C@H](C(=O)NCC(=O)N[C@@H](CO)C(=O)N[C@@H](Cc1c[nH]cn1)C(=O)N[C@H](C(=O)N[C@@H](Cc1ccc(O)cc1)C(N)=O)[C@@H](C)O)C(C)C)[C@@H](C)O [Example 93, N-alpha-[(S)-4-Carboxy-4-(19-carboxynonadecanoylamino)butyryl]-[Glu14,His35]-pramlintide] ({C20 diacid-γGlu}-KCNTATCATQRLAEFLVHSSNNFGPILPPTNVGSHTY-NH2; disulfide 2-7 (inferred); C-terminus assumed)	0.215 nM	0.138 nM	0.18 nM
